Data set [1] deals with HIV-IIIb (wildtype). The data set is described as follows: Antiviral assay in MT4 cells, HIV-IIIb wildtype. In kind it is cell-based, HIV-1. Conditions: read-out: WT EC50. The method in brief: (§1)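 MT4 cells were pre-infected for 3 h at 37 °C with HIV-IIIb (0.004 m.o.i.), then plated at 2000 cells per well with 3-fold serially diluted compound (10 concentrations, quadruplicate). After 5 days at 37 °C, CellTiter-Glo luminescence was read, and EC50 was taken as the concentration giving a 50% decrease in signal.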

Data set [2] deals with HIV-IIIb IN T174I DE. The data set can be described thus: Antiviral assay in MT4 cells, HIV-IIIb IN T174I DE virus (from dose escalation passaging). Type of data set: cell-based, HIV-1. Summed up:
as §1

Data set [3] can be described thus: Hum MS stability (human microsomal stability half-life). As to conditions: human microsomes.
Data set [4] deals with HIV-IIIb IN T174I BT. The data set is described as follows: Antiviral assay in MT4 cells, HIV-IIIb IN T174I BT virus (from viral breakthrough). In kind it is cell-based, HIV-1. The method in brief: as §1
Where [5] appears, read: Human immunodeficiency virus 1, IIIB, MT4, 120 h.
[6] abbreviates: Human immunodeficiency virus 1, IIIB, MT4, 120 h, read-out: T174I DE EC50, MT4 cells, HIV-IIIb IN T174I DE (dose escalation), 5 days, CellTiter-Glo.
Setting [7] is: Human immunodeficiency virus 1, IIIB, MT4, 120 h, read-out: T174I BT EC50, MT4 cells, HIV-IIIb IN T174I BT (viral breakthrough), 5 days, CellTiter-Glo.
Where [8] appears, read: MT4 cells, HIV-IIIb wildtype, 5 days, CellTiter-Glo.
Where [9] appears, read: MT4 cells, HIV-IIIb IN T174I DE (dose escalation), 5 days, CellTiter-Glo, read-out: T174I DE EC50.
[10] abbreviates: MT4 cells, HIV-IIIb IN T174I BT (viral breakthrough), 5 days, CellTiter-Glo, read-out: T174I BT EC50.

Where two headings read alike, the source gives them in different places.

For orientation: EC50 means the concentration needed to bring the measured effect to its halfway point. Usually half-life stands for the time needed for the level to fall by half in the phase considered. Lower therefore signals rapid decline. Take `COCCN1CCC(c2nn(C)c3ccc(-c4nc5cc(C)c([C@H](OC(C)(C)C)C(=O)O)c(-c6ccc(Cl)cc6)c5s4)cc23)C1` (single isomer, unassigned) [Compound 69]: the 50% effective concentration (EC50) amounted to 5 nM in data set [1] (setting [5]), 1150 nM in data set [2] (setting [6]) and 972 nM in data set [4] (setting [7]). This molecule showed a half-life in data set [3] of 5.72 h.
Turning to `Cc1cc2nc(-c3ccc4c(c3)c(C3CCN(C5CCOC5)CC3)nn4C)sc2c(-c2ccc(Cl)cc2)c1[C@H](OC(C)(C)C)C(=O)O` (stereo in doubt) [Compound 26, (S)-2-(tert-butoxy)-2-(7-(4-chlorophenyl)-5-methyl-2-(1-methyl-3-(1-((S)-tetrahydrofuran-3-yl)piperidin-4-yl)-1H-indazol-5-yl)benzo[d]thiazol-6-yl)acetic Acid], the EC50 in data set [1] (setting [5]) amounted to 4 nM; in data set [2] (setting [6]), 270 nM; in data set [4] (setting [7]), 129 nM. In data set [3], this molecule had a half-life of 4.68 h.
On the same counts, the results for `Cc1cc2nc(-c3ccc4c(c3)c(C3CCN(C5CCOC5)CC3)nn4C)sc2c(-c2ccc(Cl)cc2)c1[C@H](OC(C)(C)C)C(=O)O` (stereo in doubt) [Compound 27, (S)-2-(tert-butoxy)-2-(7-(4-chlorophenyl)-5-methyl-2-(1-methyl-3-(1-((R)-tetrahydrofuran-3-yl)piperidin-4-yl)-1H-indazol-5-yl)benzo[d]thiazol-6-yl)acetic Acid] are 4 nM, 245 nM, 154 nM and 4.17 h.
`Cc1cc2nc(-c3ccc4c(c3)c(C3CCN(C5COC5)CC3)nn4C)sc2c(-c2ccc(Cl)cc2)c1[C@H](OC(C)(C)C)C(=O)O` [Compound 1, (S)-2-(tert-butoxy)-2-(7-(4-chlorophenyl)-5-methyl-2-(1-methyl-3-(1-(oxetan-3-yl)piperidin-4-yl)-1H-indazol-5-yl)benzo[d]thiazol-6-yl)acetic Acid]: the EC50 is 5 nM in data set [1] (Human immunodeficiency virus 1, 120 h, MT4 cells, HIV-IIIb wildtype, 5 days, CellTiter-Glo); 315 nM in data set [2] (setting [6]); 143 nM in data set [4] (setting [7]). Further, the half-life in data set [3] is 5.83 h.
Take `COC1CN(c2nn(C)c3ccc(-c4nc5cc(C)c([C@H](OC(C)(C)C)C(=O)O)c(-c6ccc(Cl)cc6)c5s4)cc23)C1` [Compound 2, (S)-2-(tert-butoxy)-2-(7-(4-chlorophenyl)-2-(3-(3-methoxyazetidin-1-yl)-1-methyl-1H-indazol-5-yl)-5-methylbenzo[d]thiazol-6-yl)acetic Acid]: the EC50 in data set [1] (setting [5]) came out at 7 nM; in data set [2] (setting [6]), 2580 nM; in data set [4] (setting [7]) it was 1020 nM. Further, the half-life in data set [3] was 1.82 h.
Regarding `Cc1cc2nc(-c3ccc4c(c3)c(C3CCN(C(=O)[C@H]5CCCO5)CC3)nn4C)sc2c(-c2ccc(Cl)cc2)c1[C@H](OC(C)(C)C)C(=O)O` [Compound 9, (S)-2-(tert-butoxy)-2-(7-(4-chlorophenyl)-5-methyl-2-(1-methyl-3-(1-((R)-tetrahydrofuran-2-carbonyl)piperidin-4-yl)-1H-indazol-5-yl)benzo[d]thiazol-6-yl)acetic Acid], the EC50 in data set [1] (setting [5]) is 9 nM; in data set [2] (setting [6]), 511 nM; in data set [4] (setting [7]) it was 237 nM. Further, in data set [3], the half-life stood at 4.17 h.
Regarding `COC(=O)N1CC[C@@H](N2CCC(c3cn(C)c4ncc(-c5nc6cc(C)c([C@H](OC(C)(C)C)C(=O)O)c(-c7ccc(Cl)cc7)c6s5)cc34)CC2)C1` [Compound 201, (S)-2-(tert-butoxy)-2-(7-(4-chloro-phenyl)-2-(3-(1-((R)-1-(methoxy-carbonyl)pyrrolidin-3-yl)piperidin-4-yl)-1-methyl-1H-pyrrolo[2,3-b]pyridin-5-yl)-5-methylbenzo[d]thiazol-6-yl) acetic acid], the EC50 in data set [1] (setting [5]) was determined as 7 nM; in data set [2] (setting [6]), 530 nM; in data set [4] (setting [7]), 92 nM.
For `COC(=O)N1CC(N2CCC(c3cn(C)c4ncc(-c5nc6cc(C)c([C@H](OC(C)(C)C)C(=O)O)c(-c7ccc(Cl)cc7)c6s5)cc34)CC2)C1` [Compound 203, (S)-2-(tert-butoxy)-2-(7-(4-chloro-phenyl)-2-(3-(1-(1-(methoxycarbonyl)azetidin-3-yl)piperidin-4-yl)-1-methyl-1H-pyrrolo[2,3-b]pyridin-5-yl)-5-methylbenzo[d]thiazol-6-yl) acetic acid], in that order: 11 nM, 702 nM and 215 nM.
With `CC(=O)N1CC(N2CCC(c3cn(C)c4ncc(-c5nc6cc(C)c([C@H](OC(C)(C)C)C(=O)O)c(-c7ccc(Cl)cc7)c6s5)cc34)CC2)C1` [Compound 204, (S)-2-(2-(3-(1-(1-acetylazetidin-3-yl)piperidin-4-yl)-1-methyl-1H-pyrrolo[2,3-b]pyridin-5-yl)-7-(4-chlorophenyl)-5-methylbenzo [d]thiazol-6-yl)-2-(tert-butoxy) acetic acid], the EC50 in data set [1] (setting [5]) amounted to 15 nM; in data set [2] (setting [6]), 636 nM; in data set [4] (setting [7]), 255 nM.
Consider `Cc1cc2nc(-c3ccc4c(c3)c(N3CCN5C(=O)COC[C@H]5C3)nn4C)sc2c(-c2ccc(Cl)cc2)c1[C@H](OC(C)(C)C)C(=O)O` [Compound 205, (S)-2-(tert-butoxy)-2-(7-(4-chloro-phenyl)-5-methyl-2-(1-methyl-3-((R)-4-oxohexa-hydropyrazino [2,1-c][1,4]oxazin-8(1H)-yl)-1H-indazol-5-yl)benzo[d]thiazol-6-yl)acetic acid], for which the EC50 in data set [1] (setting [5]) was found to be 7 nM; in data set [2] (setting [6]), 736 nM; in data set [4] (setting [7]), 457 nM.
On the same counts, the results for `Cc1cc2nc(-c3ccc4c(c3)c(N3CCN([C@H]5C[C@@H](O)C5)CC3)nn4C)sc2c(-c2ccc(Cl)cc2)c1[C@H](OC(C)(C)C)C(=O)O` [Compound 206, (S)-2-(tert-butoxy)-2-(7-(4-chloro-phenyl)-2-(3-(4-((1s,3s)-3-hydroxy-cyclobutyl)piperazin-1-yl)-1-methyl-1H-indazol-5-yl)-5-methylbenzo[d]thiazol-6-yl) acetic acid] are 21 nM, 539 nM and 340 nM.
Regarding `Cc1cc2nc(-c3ccc4c(c3)c(N3CCN(C5(C)COC5)CC3)nn4C)sc2c(-c2ccc(Cl)cc2)c1[C@H](OC(C)(C)C)C(=O)O` [Compound 207, (S)-2-(tert-butoxy)-2-(7-(4-chloro-phenyl)-5-methyl-2-(1-methyl-3-(4-(3-methyloxetan-3-yl)piperazin-1-yl)-1H-indazol-5-yl)benzo[d]thiazol-6-yl)acetic acid], the EC50 was 4 nM in data set [1] (setting [5]), 693 nM in data set [2] (setting [6]) and 380 nM in data set [4] (setting [7]).
For `COC(=O)N1CC[C@@H](N2CCC(c3nn(C)c4ccc(-c5nc6cc(C)c([C@H](OC(C)(C)C)C(=O)O)c(-c7ccc(Cl)cc7)c6s5)nc34)CC2)C1` [Compound 208, (S)-2-(tert-butoxy)-2-(7-(4-chloro-phenyl)-2-(3-(1-((R)-1-(methoxy-carbonyl)pyrrolidin-3-yl)piperidin-4-yl)-1-methyl-1H-pyrazolo[4,3-b]pyridin-5-yl)-5-methylbenzo[d]thiazol-6-yl) acetic acid], in that order: 2 nM, 206 nM and 54 nM.
As for “(S)-2-(2-(3-(1- ((R)-1-acetyl- pyrrolidin-3-yl) piperidin-4-yl)- 1-methyl-1H- pyrazolo[4,3-b] pyridin-5-yl)-7- (4-chlorophenyl)- 5-methylbenzo[d] thiazol-6-yl)-2- (tert-butoxy) acetic acid [Compound 169]”, the EC50 in data set [1] (setting [8]) turned out to be 2 nM; in data set [2] (setting [9]) it was 86 nM; in data set [4] (setting [10]), 36 nM.
As for “(S)-2-(tert-butoxy)- 2-(7-(4-chloro- phenyl)-2-(3-(1- ((S)-1-(methoxy- carbonyl) pyrrolidin- 3-yl)piperidin-4- yl)-1-methyl-1H- pyrrolo[2,3-b] pyridin-5-yl)-5- methylbenzo[d] thiazol-6-yl) acetic acid [Compound 202]”, the EC50 in data set [1] (setting [8]) was 7 nM; in data set [2] (setting [9]), 680 nM; in data set [4] (setting [10]), 157 nM.
For “(S)-2-(tert-butoxy)- 2-(7-(4-chloro- phenyl)-2-(3-(1-(2- (dimethylamino) ethyl)piperidin-4- yl)-1-methyl-1H- indazol-5-yl)-5- methylbenzo[d] thiazol-6-yl) acetic acid [Compound 130]”, in that order: 12 nM, 232 nM and 122 nM.
On the same counts, the results for “(S)-2-(tert-butoxy)- 2-(7-(4-chloro- phenyl)-2-(3-((R)- hexahydropyrazino [2,1-c][1,4]oxazin- 8(1H)-yl)-1-methyl- 1H-indazol-5-yl)- 5-methylbenzo[d] thiazol-6-yl)acetic acid [Compound 135]” are 10 nM, 1060 nM and 399 nM.

Values taken from patent publication US10800772B2 (Gilead Sciences, Inc., priority 2016, dated 2020).
